Assay results published in US20080152589A1, “Diagnostics and Therapeutics of Neurological Disease” (priority 2006, published 2008).

Tests used:
[1] = self-administered questionnaire on lithium-induced side-effects, stratified by GSK3B and MAPT haplotype; assay type: in vivo, human; settings: for Odds Ratio, hand tremor present vs absent (pooled High GSKΔexon9 and Low GSKΔexon9+11 haplotypes vs others): lithium treatment; for mean overall side-effect score (SE score): patients administered lithium, 24 items, maximum total score 96
Protocol: Participants (n=84) suffering from a neurological disease who had been administered lithium as a therapeutic were assessed for the prevalence and pattern of lithium-induced side-effects using a self-administered questionnaire. This questionnaire was a modified version of the data collection form from a clinical trial, asking participants to rate 24 side-effect items as ‘Not present’, ‘Mild’, ‘Moderate’, ‘Severe’ and ‘Very Severe’. The 24 items listed include: nausea, vomiting, diarrhea, constipation, weight gain, weight loss, dizziness or light-headedness, blurred vision, hand tremor, muscle weakness, slurred speech, lack of coordination or unsteady gait, poor concentration mental slowing or confusion, forgetfulness or difficulty with memory/recall, drowsiness or sleepiness, worsening mood symptoms, skin rash, hair loss, thirst, dry mouth, metallic taste in mouth, loss of ability to taste food, need to pass urine much more frequently or more urgently, urinary incontinence. An overall side-effect score (SE score) was calculated for each patient based on the above 24 items and their respective grading. A score of zero was given for an absent side effect and increased to a score of 4 for a very severe side effect to give a maximum total score of 96 for each patient.
Each individual was genotyped and classified as having 0, 1 or 2 copies of the disease ‘risk’ GSK3B haplotypes (A-T-C, T-C-C and A-C-T) based on the three functional polymorphisms rs375557, rs334558 and rs6438552. In the subset of patients having a GSK-3B ‘risk’ haplotype and at least one H2 MAPT haplotype, a lower SE score was observed (12.3±2.2) compared to patients with no ‘risk’ haplotype (14.6±2.0).
The relationship between the ‘risk’ haplotypes in GSK3B and common side effect of lithium therapy, hand tremor, was then examined, the results of which are shown in Table 8. […] This information is pertinent, because lithium, which is a therapeutic agent for a number of disorders including bipolar affective disorders and Alzheimer's disease, has significant side effects. Accordingly, assays that detect the presence of a GSK-3B ‘risk’ haplotype optionally combined with detection of a MAPT H2 haplotype are useful for determining subjects likely to respond to treatment and/or that are unlikely to develop a side-effect as a result of treatment.

[2] = target: endogenous Tau of COS-7 cells; assay: cell-based or functional assay

levels of Tau [pSer396] by ELISA in transfected COS-7 cells, compared with the other GSK-3β cDNAs [2] | Molecule | Odds Ratio, hand tremor present vs absent (pooled High GSKΔexon9 and Low GSKΔexon9+11 haplotypes vs others) ([1]; MAPT H1/H1) | Odds Ratio, hand tremor present vs absent (pooled High GSKΔexon9 and Low GSKΔexon9+11 haplotypes vs others) ([1]; MAPT H1/H2 + H2/H2 (at least one H2 haplotype)) | Odds Ratio, hand tremor present vs absent (pooled High GSKΔexon9 and Low GSKΔexon9+11 haplotypes vs others) ([1]; all MAPT haplotypes) | mean overall side-effect score (SE score) ([1]; GSK-3B 'risk' haplotype and at least one H2 MAPT haplotype) | mean overall side-effect score (SE score) ([1]; no 'risk' haplotype)
– | [Li] [lithium] | 1.32 | 0.24 | 0.57 | 12.3±2.2 | 14.6±2.0
2.5 fold | GSKΔexon9+11 (GSK-3β splice isoform lacking exons 9 and 11) (from UniProt P49841 1-420) (enzyme) | – | – | – | – | –
